Results reported in ChEMBL document CHEMBL5465560, “Selectivity Literature for EUbOPEN Chemogenomic Library” (2024).

Columns and labels:
[1] = molecular target: Wee1-like protein kinase (Homo sapiens) (UniProt P30291); details: at 10 µM
[2] = molecular target: Casein kinase II subunit alpha (Homo sapiens, UniProt P68400); experiment: Selectivity interaction (Kinase panel (DSF assay)) EUB0001558a CSNK2A1
[3] = molecular target: Ribosomal protein S6 kinase alpha-6 (Homo sapiens, UniProt Q9UK32); experiment: Selectivity interaction (ProQinase) EUB0000171b RPS6KA6
[4] = molecular target: Vascular endothelial growth factor receptor 3 (Homo sapiens, UniProt P35916); experiment: Selectivity interaction (ProQinase) EUB0000171b FLT4
[5] = molecular target: T1, Serine/threonine-protein kinase BRSK2 (Homo sapiens) (UniProt Q8IWQ3); experiment: Selectivity interaction (LanthaScreen Eu Kinase Binding Assay) EUB0001632a BRSK2; details: at 10 µM
T1 sequence (whole entry): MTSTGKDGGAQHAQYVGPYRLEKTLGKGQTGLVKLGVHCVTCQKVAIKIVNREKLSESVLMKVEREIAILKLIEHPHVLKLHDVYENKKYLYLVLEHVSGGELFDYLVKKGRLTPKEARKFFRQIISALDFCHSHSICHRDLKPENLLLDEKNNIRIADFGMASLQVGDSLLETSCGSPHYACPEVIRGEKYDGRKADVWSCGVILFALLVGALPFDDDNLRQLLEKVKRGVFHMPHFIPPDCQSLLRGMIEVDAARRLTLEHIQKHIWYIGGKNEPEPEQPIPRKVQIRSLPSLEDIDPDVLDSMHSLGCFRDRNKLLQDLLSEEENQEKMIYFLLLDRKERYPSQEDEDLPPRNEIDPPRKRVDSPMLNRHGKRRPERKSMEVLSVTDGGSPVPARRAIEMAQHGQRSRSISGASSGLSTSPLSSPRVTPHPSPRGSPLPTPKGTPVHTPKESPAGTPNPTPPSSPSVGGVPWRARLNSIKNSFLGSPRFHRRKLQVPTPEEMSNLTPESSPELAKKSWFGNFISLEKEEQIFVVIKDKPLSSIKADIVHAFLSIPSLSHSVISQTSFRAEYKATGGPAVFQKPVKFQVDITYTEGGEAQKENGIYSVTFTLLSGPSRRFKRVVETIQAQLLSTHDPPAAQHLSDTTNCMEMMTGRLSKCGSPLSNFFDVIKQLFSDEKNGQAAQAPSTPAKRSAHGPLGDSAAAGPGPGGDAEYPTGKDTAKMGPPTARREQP

[6] = molecular target: Mitogen-activated protein kinase 11 (Homo sapiens) (UniProt Q15759); experiment: Selectivity interaction (Kinase panel (Z-LYTE Assay)) EUB0001632a MAPK11; details: at 10 µM
[7] = molecular target: Vascular endothelial growth factor receptor 1 (Homo sapiens) (UniProt P17948); experiment: Selectivity interaction (KinomeScan (DiscoverX)) EUB0000607a FLT1; details: at 10 µM
[8] = molecular target: Aurora kinase B (Homo sapiens, UniProt Q96GD4); experiment: Selectivity interaction (KinomeScan (DiscoverX)) EUB0001049a AURKB; details: at 1 µM
[9] = molecular target: Serine/threonine-protein kinase 32C (Homo sapiens) (UniProt Q86UX6); experiment: Selectivity interaction (KinomeScan (DiscoverX)) EUB0000595a STK32C; details: at 10 µM
[10] = molecular target: STE20-like serine/threonine-protein kinase (Homo sapiens, UniProt Q9H2G2); experiment: Selectivity interaction (KinomeScan (DiscoverX)) EUB0000595a SLK; details: at 10 µM
[11] = molecular target: Tyrosine-protein kinase JAK1 (Homo sapiens, UniProt P23458); experiment: Selectivity interaction (KinomeScan (DiscoverX)) EUB0000045b JAK1; details: at 10 µM
[12] = molecular target: T2, Protein kinase C iota type (Homo sapiens) (UniProt P41743); experiment: Selectivity interaction (Ambit KINOMEscan and KiNATiv profiling in Jurkat cells) EUB0000090b PRKCI; format: cell-based; details: at 1 µM
T2 sequence (whole entry): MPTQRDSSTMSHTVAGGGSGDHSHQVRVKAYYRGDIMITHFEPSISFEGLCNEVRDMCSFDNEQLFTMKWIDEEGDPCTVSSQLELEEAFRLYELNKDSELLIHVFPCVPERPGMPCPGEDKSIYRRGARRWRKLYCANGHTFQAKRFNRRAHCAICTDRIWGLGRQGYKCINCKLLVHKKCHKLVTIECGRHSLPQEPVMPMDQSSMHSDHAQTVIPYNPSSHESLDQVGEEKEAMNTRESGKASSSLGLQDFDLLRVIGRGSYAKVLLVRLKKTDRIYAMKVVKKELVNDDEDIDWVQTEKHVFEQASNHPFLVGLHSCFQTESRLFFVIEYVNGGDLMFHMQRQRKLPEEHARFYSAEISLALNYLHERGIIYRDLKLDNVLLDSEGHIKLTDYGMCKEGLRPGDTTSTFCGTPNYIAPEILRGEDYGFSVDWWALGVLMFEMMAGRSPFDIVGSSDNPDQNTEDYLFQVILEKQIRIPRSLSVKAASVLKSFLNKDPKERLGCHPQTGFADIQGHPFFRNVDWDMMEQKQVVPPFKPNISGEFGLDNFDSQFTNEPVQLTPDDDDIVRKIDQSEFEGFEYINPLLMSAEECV

[13] = molecular target: T3, Cyclin-dependent kinase 11A (Homo sapiens) (UniProt Q9UQ88); experiment: Selectivity interaction (Ambit KINOMEscan and KiNATiv profiling in Jurkat cells) EUB0000090b CDK11A; format: cell-based; details: at 1 µM
T3 sequence (whole entry): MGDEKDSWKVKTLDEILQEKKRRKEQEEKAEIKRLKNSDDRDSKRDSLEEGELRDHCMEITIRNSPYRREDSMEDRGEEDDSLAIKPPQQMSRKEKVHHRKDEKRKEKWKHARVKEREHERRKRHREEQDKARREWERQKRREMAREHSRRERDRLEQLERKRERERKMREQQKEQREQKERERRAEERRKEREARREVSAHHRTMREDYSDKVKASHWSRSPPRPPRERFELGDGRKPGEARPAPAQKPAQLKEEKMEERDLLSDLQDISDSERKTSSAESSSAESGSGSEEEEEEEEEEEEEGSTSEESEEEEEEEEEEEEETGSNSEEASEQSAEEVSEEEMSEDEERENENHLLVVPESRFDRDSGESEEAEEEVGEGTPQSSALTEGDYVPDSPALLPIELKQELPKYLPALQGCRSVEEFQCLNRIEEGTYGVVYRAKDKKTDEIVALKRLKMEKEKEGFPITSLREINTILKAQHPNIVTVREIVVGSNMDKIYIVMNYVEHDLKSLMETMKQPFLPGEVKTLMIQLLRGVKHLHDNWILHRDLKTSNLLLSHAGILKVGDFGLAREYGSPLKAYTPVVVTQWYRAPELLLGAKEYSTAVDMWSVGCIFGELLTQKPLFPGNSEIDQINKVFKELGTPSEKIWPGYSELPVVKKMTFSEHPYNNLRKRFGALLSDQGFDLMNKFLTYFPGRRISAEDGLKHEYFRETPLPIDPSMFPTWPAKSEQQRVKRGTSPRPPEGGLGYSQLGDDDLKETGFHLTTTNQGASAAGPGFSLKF

Chain of Ribosomal protein S6 kinase alpha-6 (Q9UK32 whole entry): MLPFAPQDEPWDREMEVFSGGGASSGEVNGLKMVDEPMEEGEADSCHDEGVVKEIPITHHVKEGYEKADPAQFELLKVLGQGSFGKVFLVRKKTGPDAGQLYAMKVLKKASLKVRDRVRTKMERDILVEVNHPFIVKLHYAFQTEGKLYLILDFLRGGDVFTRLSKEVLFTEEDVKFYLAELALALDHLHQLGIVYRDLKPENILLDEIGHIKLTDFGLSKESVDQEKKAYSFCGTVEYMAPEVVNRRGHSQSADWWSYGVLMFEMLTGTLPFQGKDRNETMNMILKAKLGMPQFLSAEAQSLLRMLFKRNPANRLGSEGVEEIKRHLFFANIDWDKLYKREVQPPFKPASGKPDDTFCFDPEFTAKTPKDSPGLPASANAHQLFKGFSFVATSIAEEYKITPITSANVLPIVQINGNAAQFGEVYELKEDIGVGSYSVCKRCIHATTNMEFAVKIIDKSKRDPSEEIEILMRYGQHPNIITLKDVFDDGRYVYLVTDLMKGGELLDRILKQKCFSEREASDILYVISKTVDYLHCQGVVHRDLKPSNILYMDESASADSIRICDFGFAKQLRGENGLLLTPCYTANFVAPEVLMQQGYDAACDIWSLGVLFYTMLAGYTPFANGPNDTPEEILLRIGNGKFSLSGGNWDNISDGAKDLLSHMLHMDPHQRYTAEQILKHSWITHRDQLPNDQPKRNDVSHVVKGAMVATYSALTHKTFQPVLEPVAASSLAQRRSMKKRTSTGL
Chain of Vascular endothelial growth factor receptor 3 (P35916 whole entry): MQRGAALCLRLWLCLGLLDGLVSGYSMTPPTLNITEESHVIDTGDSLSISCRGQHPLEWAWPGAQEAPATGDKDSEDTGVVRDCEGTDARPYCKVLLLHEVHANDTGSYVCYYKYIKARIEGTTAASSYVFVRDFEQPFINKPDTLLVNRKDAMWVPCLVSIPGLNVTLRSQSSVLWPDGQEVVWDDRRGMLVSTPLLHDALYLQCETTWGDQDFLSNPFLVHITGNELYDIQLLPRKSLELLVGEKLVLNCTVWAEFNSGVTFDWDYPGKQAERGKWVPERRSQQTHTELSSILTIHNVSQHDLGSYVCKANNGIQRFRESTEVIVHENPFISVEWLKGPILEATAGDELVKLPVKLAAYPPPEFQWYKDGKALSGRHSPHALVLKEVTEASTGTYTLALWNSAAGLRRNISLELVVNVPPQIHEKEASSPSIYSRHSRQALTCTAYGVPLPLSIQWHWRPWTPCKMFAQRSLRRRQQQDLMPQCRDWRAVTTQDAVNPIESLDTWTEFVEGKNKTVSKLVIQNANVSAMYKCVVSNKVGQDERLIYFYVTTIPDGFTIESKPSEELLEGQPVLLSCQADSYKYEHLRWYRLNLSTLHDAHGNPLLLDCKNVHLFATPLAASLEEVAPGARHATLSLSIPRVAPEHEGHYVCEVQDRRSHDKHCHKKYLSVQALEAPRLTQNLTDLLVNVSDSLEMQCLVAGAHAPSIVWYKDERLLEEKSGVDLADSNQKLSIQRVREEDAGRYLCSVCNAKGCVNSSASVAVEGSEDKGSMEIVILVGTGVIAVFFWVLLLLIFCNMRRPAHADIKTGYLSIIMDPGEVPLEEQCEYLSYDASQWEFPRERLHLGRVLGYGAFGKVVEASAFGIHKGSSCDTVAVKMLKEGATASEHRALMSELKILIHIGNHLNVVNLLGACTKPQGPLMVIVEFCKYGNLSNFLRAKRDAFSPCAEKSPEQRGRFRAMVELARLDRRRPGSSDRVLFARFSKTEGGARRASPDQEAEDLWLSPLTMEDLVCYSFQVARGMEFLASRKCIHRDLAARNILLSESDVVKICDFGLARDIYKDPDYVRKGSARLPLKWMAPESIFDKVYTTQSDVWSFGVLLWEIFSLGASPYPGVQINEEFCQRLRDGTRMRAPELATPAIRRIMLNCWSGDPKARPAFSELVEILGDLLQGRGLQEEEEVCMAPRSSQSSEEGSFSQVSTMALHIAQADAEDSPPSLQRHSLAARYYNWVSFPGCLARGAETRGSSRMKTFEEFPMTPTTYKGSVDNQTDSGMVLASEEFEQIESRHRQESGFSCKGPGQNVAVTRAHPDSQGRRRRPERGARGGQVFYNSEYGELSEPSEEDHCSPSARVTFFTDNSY
Chain of Aurora kinase B (Q96GD4 whole entry): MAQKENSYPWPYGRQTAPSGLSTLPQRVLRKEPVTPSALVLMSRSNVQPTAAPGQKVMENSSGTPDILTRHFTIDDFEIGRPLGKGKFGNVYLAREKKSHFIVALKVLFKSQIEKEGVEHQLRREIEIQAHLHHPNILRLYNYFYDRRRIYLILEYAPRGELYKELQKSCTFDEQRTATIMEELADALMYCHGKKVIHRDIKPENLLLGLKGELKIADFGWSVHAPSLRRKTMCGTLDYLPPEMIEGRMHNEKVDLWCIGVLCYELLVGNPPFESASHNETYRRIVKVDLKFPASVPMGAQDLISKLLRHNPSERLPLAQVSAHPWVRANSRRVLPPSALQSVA
Chain of Casein kinase II subunit alpha (P68400 whole entry, looked up): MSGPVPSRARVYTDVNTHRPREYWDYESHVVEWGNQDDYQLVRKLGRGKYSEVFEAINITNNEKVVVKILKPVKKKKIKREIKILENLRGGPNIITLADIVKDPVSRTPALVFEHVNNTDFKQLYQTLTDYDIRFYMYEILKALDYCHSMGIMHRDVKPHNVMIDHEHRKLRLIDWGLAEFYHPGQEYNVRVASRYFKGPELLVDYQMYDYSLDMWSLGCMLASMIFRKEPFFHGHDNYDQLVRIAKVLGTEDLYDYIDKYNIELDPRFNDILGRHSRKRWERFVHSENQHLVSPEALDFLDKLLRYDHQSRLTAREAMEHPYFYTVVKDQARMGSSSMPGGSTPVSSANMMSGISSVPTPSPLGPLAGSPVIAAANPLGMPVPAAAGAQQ
Chain of Mitogen-activated protein kinase 11 (Homo sapiens) (Q15759 whole entry): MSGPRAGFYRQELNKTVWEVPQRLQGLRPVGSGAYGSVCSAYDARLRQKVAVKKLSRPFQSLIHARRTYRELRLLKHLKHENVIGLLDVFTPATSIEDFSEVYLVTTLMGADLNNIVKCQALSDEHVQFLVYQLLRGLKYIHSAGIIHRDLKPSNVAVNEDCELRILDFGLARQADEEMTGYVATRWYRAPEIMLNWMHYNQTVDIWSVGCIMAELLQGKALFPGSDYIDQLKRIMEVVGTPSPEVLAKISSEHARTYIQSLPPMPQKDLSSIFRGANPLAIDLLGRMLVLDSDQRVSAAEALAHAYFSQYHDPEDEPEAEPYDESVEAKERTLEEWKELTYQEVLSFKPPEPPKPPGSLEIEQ
Chain of Wee1-like protein kinase (Homo sapiens) (P30291 whole entry, looked up): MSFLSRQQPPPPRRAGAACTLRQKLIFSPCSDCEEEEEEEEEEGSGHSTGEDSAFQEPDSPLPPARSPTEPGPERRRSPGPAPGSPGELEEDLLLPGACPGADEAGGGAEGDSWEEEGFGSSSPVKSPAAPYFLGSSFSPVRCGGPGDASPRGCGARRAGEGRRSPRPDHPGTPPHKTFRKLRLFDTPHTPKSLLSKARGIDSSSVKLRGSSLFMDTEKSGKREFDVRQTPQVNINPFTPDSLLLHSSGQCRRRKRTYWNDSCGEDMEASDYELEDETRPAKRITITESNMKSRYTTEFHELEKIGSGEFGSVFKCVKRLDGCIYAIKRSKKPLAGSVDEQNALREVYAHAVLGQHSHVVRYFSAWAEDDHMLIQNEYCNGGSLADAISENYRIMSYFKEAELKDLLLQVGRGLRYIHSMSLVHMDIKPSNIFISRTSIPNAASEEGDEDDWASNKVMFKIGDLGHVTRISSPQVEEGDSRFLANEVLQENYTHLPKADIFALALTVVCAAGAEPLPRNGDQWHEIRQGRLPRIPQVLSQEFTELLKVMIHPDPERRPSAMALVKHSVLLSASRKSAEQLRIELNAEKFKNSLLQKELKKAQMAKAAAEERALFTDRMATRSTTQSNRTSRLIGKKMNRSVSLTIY
Chain of Tyrosine-protein kinase JAK1 (P23458 whole entry): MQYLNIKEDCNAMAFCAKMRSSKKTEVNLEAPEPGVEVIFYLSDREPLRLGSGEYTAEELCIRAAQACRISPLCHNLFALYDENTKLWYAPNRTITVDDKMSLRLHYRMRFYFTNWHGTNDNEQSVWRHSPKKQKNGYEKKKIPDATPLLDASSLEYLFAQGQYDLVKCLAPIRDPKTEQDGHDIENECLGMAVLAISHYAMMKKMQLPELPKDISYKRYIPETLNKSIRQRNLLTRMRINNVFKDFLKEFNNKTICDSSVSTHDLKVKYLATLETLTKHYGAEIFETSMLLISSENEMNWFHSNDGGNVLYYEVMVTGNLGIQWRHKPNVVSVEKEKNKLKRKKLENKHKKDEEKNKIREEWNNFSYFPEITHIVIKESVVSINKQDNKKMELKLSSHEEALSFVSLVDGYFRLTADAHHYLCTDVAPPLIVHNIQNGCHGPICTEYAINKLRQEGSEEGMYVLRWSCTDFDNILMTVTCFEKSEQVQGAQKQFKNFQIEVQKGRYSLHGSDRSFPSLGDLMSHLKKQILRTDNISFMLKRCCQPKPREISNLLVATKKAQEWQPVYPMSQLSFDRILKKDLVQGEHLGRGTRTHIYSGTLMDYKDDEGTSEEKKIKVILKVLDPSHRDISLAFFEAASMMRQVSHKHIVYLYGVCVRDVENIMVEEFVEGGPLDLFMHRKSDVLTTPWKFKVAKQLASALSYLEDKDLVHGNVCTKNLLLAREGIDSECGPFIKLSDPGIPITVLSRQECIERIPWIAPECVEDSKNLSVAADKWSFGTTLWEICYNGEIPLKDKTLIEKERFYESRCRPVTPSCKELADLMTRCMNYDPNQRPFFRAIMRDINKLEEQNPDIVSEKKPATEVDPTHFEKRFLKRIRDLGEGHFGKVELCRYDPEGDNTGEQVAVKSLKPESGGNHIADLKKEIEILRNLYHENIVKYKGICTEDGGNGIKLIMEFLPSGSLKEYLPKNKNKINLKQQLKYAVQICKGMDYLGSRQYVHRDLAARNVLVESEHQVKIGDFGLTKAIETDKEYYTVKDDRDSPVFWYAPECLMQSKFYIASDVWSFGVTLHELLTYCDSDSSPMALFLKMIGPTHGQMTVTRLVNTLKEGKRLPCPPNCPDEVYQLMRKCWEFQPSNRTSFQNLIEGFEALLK

For `CCN(CC)CCCCNc1ncc2cc(-c3cc(OC)cc(OC)c3)c(NC(=O)NC(C)(C)C)nc2n1`, the % of control [1] was 100%.
In the case of `CC(C)(O)[C@H](F)CN1Cc2cc(NC(=O)c3cnn4cccnc34)c(N3CCOCC3)cc2C1=O`, the dTM [2] is reported as 0.3 K.
`C=CC(=O)Nc1cccc(C(=O)Nc2ccc(Nc3cc(-c4[nH]c(SC)nc4C)ccn3)cc2)c1` showed a % of control ([3]; at 1 µM) of 88%, a % of control ([3]; at 5 µM) of 68% and a % of control ([4]; at 1 µM) of 73%. It also gave a % of control ([4]; at 5 µM) of 68%.
`Cn1cc(-n2cnc3c(NCc4nc5cc(Cl)c(Cl)cc5[nH]4)nc(N4CCOCC4)nc32)cn1` gave a % of inhibition [5] of -172% and a % of control [6] of 1.54%.
Work on `CNC(=O)Nc1ccc(-c2nc(N3CC4CCC(C3)O4)c3cnn(C4CCC5(CC4)OCCO5)c3n2)cc1` yielded a % of control [7] of 92%.
`COc1cc(Nc2nc(C)cc(-c3cnn4nc(OC)ccc34)n2)cc(C(F)(F)F)c1` was tested, and the % of control [8] was 85%.
In the case of `COCC(=O)NC/C=C/c1ccc2ncnc(Nc3ccc(Oc4ccc(C)nc4)c(C)c3)c2c1` [CP-724714], the % of control [9] is reported as 86% and the % of control [10] is reported as 60%.
With `C=CC(=O)Nc1cc(-n2c(=O)ccc3cnc4ccc(-c5ccc(NS(C)(=O)=O)cc5)cc4c32)ccc1C` the % of control [11] was 93%.
`CN(C)C/C=C/C(=O)Nc1ccc(C(=O)N2CCCC(Nc3ncc(Cl)c(-c4c[nH]c5ccccc45)n3)C2)cc1` (stereo not given) showed a % of control [12] of 98% and a % of control [13] of 95%.
